Source: US8193223B2, “1,2,3-triazole derivatives as sigma receptor inhibitors” (Laboratorios Del Dr. Esteve, S.A., priority 2006, dated 2012)

Molecular target: T1, sigma-1 receptor (Cavia porcellus, UniProt Q60492)
T1 construct: from tissue; host or cells: guinea pig brain membranes
Assay: [3H](+)-pentazocine binding assay for the sigma-1 receptor in guinea pig brain membranes
Settings: [3H](+)-pentazocine 0.5 nM; for Sigma-1 Inhibition percent (0.01 μM): compound 0.01 μM; for Sigma-1 Inhibition percent (0.1 μM): compound 0.1 μM
Method: Some of the compounds synthesized according to the procedures described above were tested for their activity as sigma-1 inhibitors. The following protocol was followed:
Brain membrane preparation and binding assays for the […] were performed as described (DeHaven-Hudkins et al., 1992) with some modifications. In brief, guinea pig brains were homogenized in 10 vols. (w/v) of Tris-HCl 50 mM 0.32 M sucrose, pH 7.4, with a Kinematica Polytron PT 3000 at 15000 r.p.m. for 30 s. The homogenate was centrifuged at 1000 g for 10 min at 4° C. and the supernatants collected and centrifuged again at 48000 g for 15 min at 4° C. The pellet was resuspended in 10 volumes of Tris-HCl buffer (50 mM, pH 7.4), incubated at 37° C. for 30 min, and centrifuged at 48000 g for 20 min at 4° C. Following this, the pellet was resuspended in fresh Tris-HCl buffer (50 mM, pH 7.4) and stored on ice until use.
Each assay tube contained 10 μL of [^3H](+)-pentazocine (final concentration of 0.5 nM), 900 μL of the tissue suspension to a final assay volume of 1 mL and a final tissue concentration of approximately 30 mg tissue net weight/mL. Non-specific binding was defined by addition of a final concentration of 1 μM haloperidol. All tubes were incubated at 37° C. for 150 min before termination of the reaction by rapid filtration over Schleicher & Schuell GF 3362 glass fibre filters [previously soaked in a solution of 0.5% polyethylenimine for at least 1 h]. Filters were then washed with four times with 4 mL of cold Tris-HCl buffer (50 mM, pH 7.4). Following addition of scintillation cocktail, the samples were allowed to equilibrate overnight. The amount of bound radioactivity was determined by liquid scintillation spectrometry using a Wallac Winspectral 1414 liquid scintillation counter. Protein concentrations were determined by the method of Lowry et al. (1951).

T1 sequence (Q60492 whole entry): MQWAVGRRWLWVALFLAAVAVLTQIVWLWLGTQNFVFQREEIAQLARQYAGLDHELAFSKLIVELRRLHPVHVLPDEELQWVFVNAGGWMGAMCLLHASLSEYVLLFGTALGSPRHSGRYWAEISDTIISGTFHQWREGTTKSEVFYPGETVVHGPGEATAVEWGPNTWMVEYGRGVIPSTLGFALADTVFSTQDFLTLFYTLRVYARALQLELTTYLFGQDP

Compound | Sigma-1 Inhibition percent (0.01 μM) | Sigma-1 Inhibition percent (0.1 μM)
c1ccc(-c2cnn(CCCN3CCCCC3)n2)cc1 [compound 20] | 43.6 | 82.2
Fc1cc(Br)ccc1-c1cnn(CCCN2CCCCC2)n1 [compound 21] | 25.8 | 83.4
Clc1ccc(-c2nn(CCCN3CCCCCC3)nc2-c2ccccc2)cc1 [compound 6] | 36.5 | 52.5
Cc1nn(CCCN2CCCCC2)nc1-c1ccccc1 [compound 19] | 31.2 | 78.5
Clc1ccc(-c2nn(CCCCN3CCCCC3)nc2-c2ccccc2)cc1 [compound 10] | 26.1 | 59.1
